Holding throughout (assay): NCI tumour cell line growth inhibition, 48 h
For experiment [1], the system named is SW-620 colon.
Experiment [2] has as its system DU-145 prostate.
Experiment [3] concerns KM12 colon.
Experiment [4] relates to OVCAR-8 ovarian.
In experiment [5] the test system is NCI-H23 lung.
For experiment [6], the system named is SF-268 CNS.
Experiment [7] relates to MDA-MB-435.
The subject of experiment [8] is SF-295 CNS.
The test system of experiment [9] is UACC-257 melanoma.
For experiment [10], the system named is UACC-62 melanoma.

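Results reflect a 48-hour exposure of cells in 96-well plates to compound at five concentrations. Here, GI50 denotes the concentration required for 50% inhibition of growth. Definition used: TGI = concentration required for complete inhibition of growth.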

In the case of `COC(=O)c1ccc2c(c1)C(=O)c1c-2n(CCCN)c(=O)c2cc(OC)c(OC)cc12`, the GI50 in [1] is 7.9 µM; in [2], 7.89 µM; in [3] it was 7.47 µM; in [4], 14.5 µM; in experiment [5], 17.1 µM; in experiment [6], 18.6 µM. Moreover, the GI50 was 21.6 µM in [7], 17.9 µM in [8], 14.5 µM in experiment [9] and 15.4 µM in experiment [10]. Also, the TGI in [1] was 24.4 µM; in experiment [2] it was 22.8 µM; in experiment [3], 26 µM; in [4], greater than 55 µM; in experiment [5], 33.5 µM; in [6] it was 42 µM. Also, the TGI in [7] is 46.2 µM; in experiment [8] it was 37.3 µM; in [9], greater than 41.5 µM; in experiment [10], 30.2 µM.

Regarding `CC(=O)c1cc(-c2ccccc2N)n(-c2ccc3c(c2)OCO3)c1C`, the GI50 in [1] is 0.184 µM; in experiment [2] it was 0.0408 µM; in experiment [3], 0.295 µM; in experiment [4] it was 0.156 µM; in experiment [5] it was 0.218 µM; in [6], 0.4 µM. In addition, the GI50 in experiment [7] was 0.163 µM; in experiment [8], 0.295 µM; in [9], 27.3 µM; in experiment [10], 0.227 µM. For the same compound, the TGI in experiment [1] is greater than 100 µM; in experiment [2] it was greater than 100 µM; in experiment [3] it was greater than 37.7 µM; in experiment [4], greater than 100 µM; in [5], 97.6 µM; in experiment [6], greater than 100 µM. In addition, the TGI in experiment [7] was 0.434 µM; in experiment [8], 45.7 µM; in experiment [9], greater than 100 µM; in experiment [10], 23 µM.

Consider `CNCCNc1nc2ccccc2c2c(=O)c3cc(OC)ccc3sc12`, for which the GI50 in [1] is 1.41 µM; in [2] it was 1.73 µM; in [3], 1.8 µM; in [4] it was 1.91 µM; in experiment [5] it was 1.62 µM; in [6] it was 1.64 µM. For the same compound, the GI50 was 1.72 µM in experiment [7], 1.82 µM in experiment [8], 1.89 µM in experiment [9] and 1.69 µM in [10]. In addition, the TGI came out at 2.91 µM in experiment [1]; 3.16 µM in [2]; 3.48 µM in experiment [3]; 4.39 µM in experiment [4]; 3.05 µM in experiment [5]; 3.39 µM in [6]. Further, the TGI in [7] was 3.13 µM; in experiment [8], 3.36 µM; in experiment [9] it was 3.75 µM; in [10] it was 3.13 µM.

For `CN1c2ccccc2S(=O)(=O)n2c(CCc3ccccc3)nnc21`, the TGI in [1], in [2], in experiment [3], in experiment [4], in experiment [5] and in experiment [6] was greater than 100 µM in each case. Also, the TGI in experiment [7], in experiment [8], in [9] and in experiment [10] was greater than 100 µM in each case.

For the compound `Cc1nn(CNc2ccccc2C(F)(F)F)c(=S)n1/N=C/c1ccc(F)cc1`, the GI50 in experiment [1], in experiment [2], in experiment [3], in experiment [4], in experiment [5] and in [6] was greater than 100 µM each time. The GI50 in [7] was greater than 100 µM; in [8], greater than 100 µM; in experiment [9], 59.2 µM; in experiment [10], 35.4 µM. For the same compound, the TGI in [1], in experiment [2], in experiment [3], in [4], in experiment [5] and in experiment [6] was greater than 100 µM in each case. Besides, the TGI in experiment [7], in [8], in experiment [9] and in experiment [10] was greater than 100 µM throughout.

`Clc1ccc2ns[s+]c2c1`: the TGI was greater than 100 µM in [1]; greater than 100 µM in experiment [2]; greater than 100 µM in [3]; greater than 100 µM in experiment [4]; greater than 46.4 µM in experiment [5]; greater than 100 µM in experiment [6]. For the same compound, the TGI in experiment [7], in experiment [8], in experiment [9] and in experiment [10] was greater than 100 µM throughout.

As for `COc1nc(C)cc2c(=O)n(-c3ccccc3)n(CC(O)CN3CCN(c4ccc(Cl)cc4)CC3)c(=O)c12` (stereo unspecified), the GI50 in experiment [1] is greater than 50 µM; in experiment [2] it was greater than 50 µM; in [3], greater than 50 µM; in [5], greater than 50 µM; in experiment [6], 24.8 µM; in [7] it was greater than 50 µM. The GI50 was 36.4 µM in experiment [8] and 46.6 µM in [10]. For the same compound, the TGI in [1], in experiment [2], in experiment [3], in experiment [5], in [6] and in [7] was greater than 50 µM throughout. In addition, the TGI in experiment [8] and in experiment [10] was greater than 50 µM in each case.

For `CCCCN(CC)c1ncnc2ccc(Br)cc12`, the GI50 in [2] is 19.4 µM; in experiment [3] it was 15.3 µM; in [4], 14 µM; in experiment [5], 18.8 µM; in experiment [6], 19.1 µM; in experiment [7], 16 µM. Besides, the GI50 is 17.8 µM in experiment [8] and 15.7 µM in experiment [10]. Besides, the TGI in experiment [2] was found to be 46.8 µM; in experiment [3], 31.6 µM; in [4], 34.2 µM; in [5], 44.4 µM; in experiment [6], 68 µM; in experiment [7], 34.4 µM. Moreover, the TGI in [8] is 38.3 µM; in experiment [10], 34.7 µM.

With `COC(=O)[C@]1(C)CCC[C@@]2(C)[C@@H]3C[C@@H]4[C@H]5C[C@@]3(CC[C@@H]21)C[C@@]45C`, the TGI was 62.6 µM in [1]; 65.9 µM in experiment [2]; 30.6 µM in experiment [4]; 28.2 µM in [5]; 31.8 µM in experiment [6]; 38.7 µM in experiment [7]. The TGI in experiment [8] amounted to 28.5 µM; in experiment [9] it was 28.8 µM; in [10], 28 µM.

The values are drawn from PubChem BioAssay (NCI).
